Assay results: patent US11149037B2, “Pyrazole MAGL inhibitors” (H. Lundbeck A/S, priority 2017, dated 2021)

Tests used:
MAGL [1] = target: MAGL (Homo sapiens (Human), UniProt Q99685); assay: In vitro competitive activity-based protein profiling, human proteomes (prefrontal cortex or PC3 cell membrane fractions); format: biochemical; details: human proteome; for inhibition at 1 µM: read-out: MAGL % inh. 1 μM (human)
How it was run: (§1)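 Activity of MAGL and FAAH was quantified from fluorescent gel band intensities. Beforehand, inhibitors at several concentrations competed against subsequent probe labelling (FP-Rh, JW912 or HT-01) in species-matched proteomes, each step 30 min at 37° C.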

FAAH [2] = target: FAAH (Homo sapiens (Human), UniProt O00519); assay: as above; format: biochemical; details: human proteome; for inhibition at 1 µM: read-out: FAAH % inh. 1 μM (human)
Sequence of FAAH (Homo sapiens (Human), UniProt O00519) (O00519 whole entry): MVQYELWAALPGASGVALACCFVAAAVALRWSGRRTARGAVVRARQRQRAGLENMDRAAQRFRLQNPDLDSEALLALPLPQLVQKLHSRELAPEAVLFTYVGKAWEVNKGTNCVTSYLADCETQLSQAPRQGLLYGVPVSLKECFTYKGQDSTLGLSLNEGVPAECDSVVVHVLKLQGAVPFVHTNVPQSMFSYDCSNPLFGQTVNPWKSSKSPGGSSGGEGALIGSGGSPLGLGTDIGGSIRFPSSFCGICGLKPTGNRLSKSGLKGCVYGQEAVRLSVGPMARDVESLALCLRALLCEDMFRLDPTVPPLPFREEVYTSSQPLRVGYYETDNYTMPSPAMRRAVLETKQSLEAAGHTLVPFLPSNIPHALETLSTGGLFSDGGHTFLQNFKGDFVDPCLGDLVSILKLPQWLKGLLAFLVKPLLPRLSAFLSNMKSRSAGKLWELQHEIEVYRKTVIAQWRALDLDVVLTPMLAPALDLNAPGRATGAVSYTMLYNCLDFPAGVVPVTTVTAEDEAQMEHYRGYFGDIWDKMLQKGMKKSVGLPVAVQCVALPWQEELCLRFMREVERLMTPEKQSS
How it was run: as §1

MAGL [3] = target: T1, MAGL (Mus musculus (Mouse), UniProt O35678); assay: Mouse brain proteomes from inhibitor treated mice (oral gavage, sacrificed 4 h after administration); format: in vivo; details: 5 mg/kg oral gavage
T1 sequence (O35678 whole entry): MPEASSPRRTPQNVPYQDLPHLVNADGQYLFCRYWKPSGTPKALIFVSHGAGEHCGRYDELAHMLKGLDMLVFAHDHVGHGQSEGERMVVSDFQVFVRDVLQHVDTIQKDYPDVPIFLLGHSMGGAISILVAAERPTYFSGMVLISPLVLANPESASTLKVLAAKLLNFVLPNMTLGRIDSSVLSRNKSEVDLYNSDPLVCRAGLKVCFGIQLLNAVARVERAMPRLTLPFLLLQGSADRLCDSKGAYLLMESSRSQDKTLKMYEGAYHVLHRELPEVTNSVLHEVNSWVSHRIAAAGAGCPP
Description: (§2) Preparation of Mouse Brain Proteomes from Inhibitor Treated Mice.
(§3) Inhibitors were administered to wild-type C57B1/6J by oral gavage in a vehicle of polyethylene glycol. Each animal was sacrificed 4 h following administration and brain proteomes were prepared and analyzed according to previously established methods (See Niphakis, M. J., et al. (2011) ACS Chem. Neurosci. and Long, J. Z., et al. Nat. Chem. Biol. 5:37-44).

FAAH [4] = target: T2, FAAH (Mus musculus (Mouse), UniProt O08914); assay: as above; format: in vivo; details: 5 mg/kg oral gavage
T2 sequence (O08914 whole entry): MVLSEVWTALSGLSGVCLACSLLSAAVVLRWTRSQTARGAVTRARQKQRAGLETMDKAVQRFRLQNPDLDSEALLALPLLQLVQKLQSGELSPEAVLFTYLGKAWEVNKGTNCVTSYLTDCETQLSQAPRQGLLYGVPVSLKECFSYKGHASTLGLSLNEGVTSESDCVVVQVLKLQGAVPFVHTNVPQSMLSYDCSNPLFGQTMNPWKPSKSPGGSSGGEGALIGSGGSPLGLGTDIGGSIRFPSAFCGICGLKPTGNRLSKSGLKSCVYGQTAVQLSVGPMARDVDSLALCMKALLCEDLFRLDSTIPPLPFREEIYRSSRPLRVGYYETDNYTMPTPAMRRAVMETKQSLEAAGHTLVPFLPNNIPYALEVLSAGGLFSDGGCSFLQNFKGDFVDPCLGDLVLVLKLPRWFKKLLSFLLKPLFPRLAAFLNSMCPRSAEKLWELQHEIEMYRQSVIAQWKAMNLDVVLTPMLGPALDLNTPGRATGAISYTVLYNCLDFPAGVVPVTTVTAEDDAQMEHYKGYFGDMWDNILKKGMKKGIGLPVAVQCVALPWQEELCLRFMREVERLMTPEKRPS
Description: as §2, §3

MAGL [5] = target: T1, MAGL; assay: In vitro competitive activity-based protein profiling, mouse proteomes (brain membrane fraction or cell lysates); format: biochemical; details: mouse proteome, read-out: MAGL % inh. 1 μM (mouse)
How it was run: as §1

FAAH [6] = target: T2, FAAH; assay: as above; format: biochemical; details: mouse proteome, read-out: FAAH % inh. 1 μM (mouse)
How it was run: as §1

Sequence of MAGL (Homo sapiens (Human), UniProt Q99685) (Q99685 whole entry): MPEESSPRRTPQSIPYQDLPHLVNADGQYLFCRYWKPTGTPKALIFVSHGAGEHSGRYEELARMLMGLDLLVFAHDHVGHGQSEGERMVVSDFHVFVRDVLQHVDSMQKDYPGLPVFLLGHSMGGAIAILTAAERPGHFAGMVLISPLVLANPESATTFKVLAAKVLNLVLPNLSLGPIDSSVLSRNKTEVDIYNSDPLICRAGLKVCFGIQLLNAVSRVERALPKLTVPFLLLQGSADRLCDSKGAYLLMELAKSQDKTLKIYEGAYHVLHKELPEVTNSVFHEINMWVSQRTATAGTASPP

inhibition at 1 µM (MAGL [1]) | inhibition at 1 µM (FAAH [2]) | inhibition at 1 µM (MAGL [5]) | inhibition at 1 µM (FAAH [6]) | IC50 (MAGL [1]) | IC50 (FAAH [2]) | Structure (SMILES) | MAGL % inh. 5 mg/kg (mouse) (MAGL [3]) | FAAH % inh. 5 mg/kg (mouse) (FAAH [4])
> 75% | 0 to 25% | > 75% | 0 to 25% | – | – | C[C@H]1CN(C(=O)n2ccc(NS(C)(=O)=O)n2)CCN1Cc1ccc(Cl)c(N2CCC(F)CC2)c1 [Example 148, (S)-N-(1-(4-(4-Chloro-3-(4-fluoropiperidin-1-yl)benzyl)-3-methylpiperazine-1-carbonyl)-1H-pyrazol-3-yl)methanesulfonamide] | A (% inhibition is greater than or equal to 75%) | D (% inhibition is greater than or equal to 0% and less than 25%)
> 75% | 0 to 25% | > 75% | 0 to 25% | – | – | CC(=O)Nc1ccn(C(=O)N2CC[C@H](Oc3ccc(C(N)=O)c(C(F)(F)F)c3)[C@H](F)C2)n1 [Example 118, 4-(((3R,4S)-1-(3-Acetamido-1H-pyrazole-1-carbonyl)-3-fluoropiperidin-4-yl)oxy)-2-(trifluoromethyl)benzamide] | D (% inhibition is greater than or equal to 0% and less than 25%) | D (% inhibition is greater than or equal to 0% and less than 25%)
> 75% | 0 to 25% | > 75% | 0 to 25% | < 0.1 µM | 1 to 10 µM | CS(=O)(=O)Nc1ccn(C(=O)N2CCC3(CCN(Cc4ccc(Cl)cc4N4CCCC4)C3)CC2)n1 [Example 63, N-(1-(2-(4-Chloro-2-(pyrrolidin-1-yl)benzyl)-2,8-diazaspiro[4.5]decane-8-carbonyl)-1H-pyrazol-3-yl)methanesulfonamide] | C (% inhibition is greater than or equal to 25% and less than 50%) | D (% inhibition is greater than or equal to 0% and less than 25%)
> 75% | 0 to 25% | > 75% | 0 to 25% | – | – | CS(=O)(=O)Nc1ccn(C(=O)N2CCC3(CCN(Cc4ccc(C(F)(F)F)cc4N4CCCC4)C3)CC2)n1 [Example 58, N-(1-(2-(2-(Pyrrolidin-1-yl)-4-(trifluoromethyl)benzyl)-2,8-diazaspiro[4.5]decane-8-carbonyl)-1H-pyrazol-3-yl)methanesulfonamide] | A (% inhibition is greater than or equal to 75%) | D (% inhibition is greater than or equal to 0% and less than 25%)
> 75% | 0 to 25% | > 75% | 0 to 25% | – | – | CS(=O)(=O)Nc1ccn(C(=O)N2CCC(Oc3ccc(C(F)(F)F)cc3-n3cccn3)CC2)n1 [Example 98, N-(1-(4-(2-(1H-Pyrazol-1-yl)-4-(trifluoromethyl)phenoxy)piperidine-1-carbonyl)-1H-pyrazol-3-yl)methanesulfonamide] | D (% inhibition is greater than or equal to 0% and less than 25%) | D (% inhibition is greater than or equal to 0% and less than 25%)
> 75% | 0 to 25% | > 75% | 0 to 25% | – | – | CC(=O)Nc1ccn(C(=O)N2CCC3(CCCN3Cc3ccc(C(F)(F)F)cc3NCCCC(=O)O)CC2)n1 [Example 79, 4-((2-((8-(3-Acetamido-1H-pyrazole-1-carbonyl)-1,8-diazaspiro[4.5]decan-1-yl)methyl)-5-(trifluoromethyl)phenyl)amino)butanoic acid] | D (% inhibition is greater than or equal to 0% and less than 25%) | D (% inhibition is greater than or equal to 0% and less than 25%)
> 75% | 0 to 25% | > 75% | 0 to 25% | < 0.1 µM | 1 to 10 µM | CC(=O)Nc1ccn(C(=O)N2CCC(C)(N(C)Cc3cc(C(F)(F)F)cc(C4(C(=O)O)CCCC4)c3)CC2)n1 [Example 132, 1-(3-(((1-(3-Acetamido-1H-pyrazole-1-carbonyl)-4-methylpiperidin-4-yl)(methyl)amino)methyl)-5-(trifluoromethyl)phenyl)cyclopentane-1-carboxylic acid] | D (% inhibition is greater than or equal to 0% and less than 25%) | D (% inhibition is greater than or equal to 0% and less than 25%)
> 75% | 0 to 25% | > 75% | 0 to 25% | < 0.1 µM | 1 to 10 µM | C[C@H](c1ccc(Cl)c(N2CCC(F)CC2)c1)N1CCN(C(=O)n2ccc(NS(C)(=O)=O)n2)CC1 [Example 139, (R)-N-(1-(4-(1-(4-Chloro-3-(4-fluoropiperidin-1-yl)phenyl)ethyl)piperazine-1-carbonyl)-1H-pyrazol-3-yl)methanesulfonamide] | D (% inhibition is greater than or equal to 0% and less than 25%) | D (% inhibition is greater than or equal to 0% and less than 25%)
> 75% | 0 to 25% | > 75% | 0 to 25% | – | – | CC(=O)Nc1ccn(C(=O)N2CCN(Cc3ccc(C(F)(F)F)cc3NCCCC(=O)O)CC2)n1 [Example 76, 4-((2-((4-(3-Acetamido-1H-pyrazole-1-carbonyl)piperazin-1-yl)methyl)-5-(trifluoromethyl)phenyl)amino)butanoic acid] | D (% inhibition is greater than or equal to 0% and less than 25%) | D (% inhibition is greater than or equal to 0% and less than 25%)
> 75% | 0 to 25% | > 75% | 0 to 25% | – | – | CS(=O)(=O)Nc1ccn(C(=O)N2CCN(Cc3ccc(Cl)c(N4CCC5(CCOCC5)C4)c3)CC2)n1 [Example 159, N-(1-(4-(4-Chloro-3-(8-oxa-2-azaspiro[4.5]decan-2-yl)benzyl)piperazine-1-carbonyl)-1H-pyrazol-3-yl)methanesulfonamide] | D (% inhibition is greater than or equal to 0% and less than 25%) | D (% inhibition is greater than or equal to 0% and less than 25%)
> 75% | 0 to 25% | > 75% | 0 to 25% | – | – | CS(=O)(=O)Nc1ccn(C(=O)N2CCC(Oc3ccc(C(F)(F)F)cc3N3CCCC3)CC2)n1 [Example 80, N-(1-(4-(2-(Pyrrolidin-1-yl)-4-(trifluoromethyl)phenoxy)piperidine-1-carbonyl)-1H-pyrazol-3-yl)methanesulfonamide] | A (% inhibition is greater than or equal to 75%) | D (% inhibition is greater than or equal to 0% and less than 25%)
> 75% | 0 to 25% | > 75% | 0 to 25% | – | – | CN(Cc1ccc(C(F)(F)F)cc1N1CCCC1)C1(C)CCN(C(=O)n2ccc(NS(C)(=O)=O)n2)CC1 [Example 75, N-(1-(4-Methyl-4-(methyl(2-(pyrrolidin-1-yl)-4-(trifluoromethyl)benzyl)amino)piperidine-1-carbonyl)-1H-pyrazol-3-yl)methanesulfonamide] | A (% inhibition is greater than or equal to 75%) | D (% inhibition is greater than or equal to 0% and less than 25%)
